The values below come from publication PMC10113271, “Rational peptide design for inhibition of the KIX–MLL interaction” (Scientific Reports, 2023).

Data set [1] deals with T1, KIX (Mus musculus, UniProt P45481).
T1 construct: The DNA fragment of KIX (residues 586–672 of mouse CBP); 6xHis-tag with thrombin cleavage site (N); made in house; host or cells: E. coli BL21(DE3)pLysS
Kind of data set: KIX binding by isothermal titration calorimetry (ITC). Conditions: 30 °C. The method, then:
For the expression of MLL TAD, E. coli BL21(DE3) competent cells were transformed with the plasmid and cultivated at 37 °C in 2 × YT liquid medium supplemented with ampicillin. When an optical density at 600 nm (OD600) of the cell culture reached 0.7–0.8, 1 mM isopropyl β-D-1-thiogalactopyranoside was added to induce protein expression. After 4 h of cultivation, the cells were harvested by centrifugation. The E. coli cell pellet was suspended with buffer HP (50 mM sodium phosphate [pH 7.4], 300 mM NaCl, 10 mM imidazole, and 6 M guanidine hydrochloride). The sonicated lysate was centrifuged at 4 °C, and the supernatant was filtered using a membrane filter and applied to a gravity column (50 mL) containing 5 mL of nickel-nitrilotriacetic acid (Ni–NTA) resin (Qiagen, Hilden, Germany). The column was washed with buffer HP and buffer AP (50 mM sodium phosphate [pH 7.4], 300 mM NaCl, and 10 mM imidazole) to remove impurities. To elute His-tag–GB1–MLL TAD for ITC and SPR measurements, 40 mL of buffer EP (50 mM sodium phosphate [pH 7.4], 300 mM NaCl, and 250 mM imidazole) was added to the column. […] Thus, His-tag–GB1–MLL TAD was used in the ITC measurements, with the exception of the four mutants (I2849L, D2851L, K2855R, and T2857I). To obtain the MLL TAD peptide without His-tag–GB1 for CD measurements, we washed the column, to which the His-tag–GB1–MLL TAD was attached, with buffer TP (50 mM sodium phosphate [pH 7.4] and 300 mM NaCl), added 150 units of thrombin to the column for digestion of the His-tag–GB1, and eluted the MLL TAD peptide with buffer TP. After Ni–NTA column purification, anion exchange chromatography was performed to further purify the aforementioned four mutants without His-tag–GB1 using the AKTAprime plus chromatography system (Cytiva, Marlborough, MA, USA; 10 mM sodium phosphate [pH 6.0] and 0–1 M NaCl). Due to the fact that the CD spectra of the four mutants were unchanged before and after the anion exchange chromatography, we omitted this procedure for other mutants.
Expression and purification of the KIX protein was performed in the same way as MLL, except that E. coli BL21(DE3)pLysS competent cells and 2 × YT liquid medium with ampicillin and chloramphenicol were used. After Ni–NTA column purification, gel filtration chromatography was performed using a Superdex 200 pg column (Cytiva) and the ITC buffer (20 mM Tris–acetate [pH 7.0] and 50 mM NaCl).
ITC measurements were performed using MicroCal iTC200 (Malvern Panalytical Ltd., Malvern, United Kingdom) at 30 °C. Samples were sufficiently dialyzed with the ITC buffer before measurements. The 600 μM MLL solution was titrated into the cell containing 45 µM KIX. The data were analyzed using the Origin 7 software (OriginLab Corp., Northampton, MA, USA; https://www.originlab.com) to obtain the Kd (M), ΔH (kcal/mol), and stoichiometry of binding, N. The ΔG (kcal/mol) and ΔS (kcal/mol/K) were obtained as follows:2 ΔG=-RTln1/Kd 3 ΔS=ΔH-ΔG/T where R is the gas constant, and T is the temperature.

Data set [2] concerns the target KIX. The settings on record: previously reported value for binding between KIX and MLL TAD; cited from earlier work. An excerpt:
Previous studies have reported several inhibitors that bind the MLL site of KIX, including isoxazolidine derivatives, which are small molecule compounds that mimic the function of the TADs of transcriptional activators, and natural products such as sekikaic acid and lobaric acid[21],[22].

A short description of data set [3]: Helix contents estimated from far-UV CD spectra. The class given is physicochemical. The settings on record: 30 μM peptide without His-tag–GB1, 30 °C, pH 7.0, CONTINLL with SDP48 reference set. The method, then: CD spectra were measured using a J-805 spectropolarimeter (JASCO, Tokyo, Japan) from 200 to 250 nm in a quartz cuvette with a 1-mm path length at 30 °C. Protein concentrations were 30 μM. The CD intensity was converted to MRE using the following equation:1 MRE(deg cm^2dmol^-1)=CD(mdeg)/N·c(M)·l(mm) where N is the number of residues, c is the protein concentration, and l is the path length.
The helix contents of the MLL TAD peptide were calculated from the far-UV CD spectra using the CONTINLL program[42] with the reference data set containing soluble and denatured proteins (SDP48) in the CDPro package.

T1 sequence (P45481 586-672): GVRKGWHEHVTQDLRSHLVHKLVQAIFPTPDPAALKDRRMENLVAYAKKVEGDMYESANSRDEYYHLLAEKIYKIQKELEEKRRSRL

Turning to `CC[C@H](C)[C@H](NC(=O)[C@H](CC(=O)O)NC(=O)[C@H](CO)NC(=O)[C@@H]1CCCN1C(=O)[C@H](CC(C)C)NC(=O)[C@@H](NC(=O)[C@H](CC(N)=O)NC(=O)CN)[C@@H](C)CC)C(=O)N[C@@H](CCSC)C(=O)N[C@@H](CC(=O)O)C(=O)N[C@@H](Cc1ccccc1)C(=O)N[C@H](C(=O)N[C@@H](CC(C)C)C(=O)N[C@@H](CCCCN)C(=O)N[C@@H](CC(N)=O)C(=O)N[C@H](C(=O)N1CCC[C@H]1C(=O)N[C@@H](CO)C(=O)N[C@@H](CCSC)C(=O)N[C@@H](CCC(N)=O)C(=O)N[C@@H](C)C(=O)N[C@@H](CC(C)C)C(=O)NCC(=O)N[C@@H](CCC(=O)O)C(=O)N[C@@H](CO)C(=O)N1CCC[C@H]1C(=O)N[C@@H](CCC(=O)O)C(=O)N[C@@H](CO)C(=O)N[C@@H](Cc1ccc(O)cc1)C(=O)O)[C@@H](C)O)C(C)C` [wild type, reference compound], the “N (stoichiometry of binding)” value in data set [1] (pH 7.0, mean ± standard error of triplicate or more) is listed as 1.02 ± 0.01. Also, the “− TΔS” value in data set [1] (entropy term upon KIX binding, pH 7.0, ΔS=(ΔH-ΔG)/T, mean ± standard error of triplicate or more) turned out to be 5.2 ± 0.1 kcal/mol. Also, the Kd in data set [2] is 2100 nM. Also, the helix contents in data set [3] is ~ 5.7%.

What is called Kd is the free concentration of one partner at which half of the binding sites on the other are occupied at equilibrium, for simple one-to-one binding.
